From the supplement of paper PMC10307832

How the values were obtained:
Experiment in all cases: relative viability (nuclei count vs DMSO), 5 days (fraction); higher = more cells survive
[1] = compound: C=CCn1c(=O)c2cnc(Nc3ccc(N4CCN(C)CC4)cc3)nc2n1-c1cccc(C(C)(C)O)n1 [Adavosertib] + CC(=O)c1c(C)c2cnc(Nc3ccc(N4CCNCC4)cn3)nc2n(C2CCCC2)c1=O [Palbociclib] (partner 0.5 µM)
Method in brief: (§1)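 Lung cancer cell lines were seeded in 1536-well plates and dosed by pin tool the next day, with either a single drug or a fixed anchor-drug dose combined with five library-drug doses (not always all listed) spaced in √10 steps. Five days later, one step fixed the cells and stained their nuclei (final 0.05% Triton X-100, 1% formaldehyde, 1 ug/ml Hoechst), and nuclei were counted on 4× images. Relative viability is the nuclei count in treated wells divided by the count in vehicle wells, and each value is the median of duplicate plates.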

[2] = compound: C=CCn1c(=O)c2cnc(Nc3ccc(N4CCN(C)CC4)cc3)nc2n1-c1cccc(C(C)(C)O)n1 [Adavosertib] + Cc1nc(Nc2ncc(C(=O)Nc3c(C)cccc3Cl)s2)cc(N2CCN(CCO)CC2)n1 [Dasatinib] (partner 0.075 µM)
Method in brief: as §1

[3] = compound: C=CCn1c(=O)c2cnc(Nc3ccc(N4CCN(C)CC4)cc3)nc2n1-c1cccc(C(C)(C)O)n1 [Adavosertib] + Nc1nc2[nH]cc(CCc3ccc(C(=O)N[C@@H](CCC(=O)O)C(=O)O)cc3)c2c(=O)[nH]1 [Pemetrexed] (partner 0.2 µM)
Method in brief: as §1

[4] = compound: COc1nc(N)nc2c1ncn2[C@@H]1O[C@H](CO)[C@@H](O)[C@@H]1O [Nelarabine] + CC(=O)c1c(C)c2cnc(Nc3ccc(N4CCNCC4)cn3)nc2n(C2CCCC2)c1=O [Palbociclib] (partner 0.5 µM)
Method in brief: as §1

[5] = compound: COc1nc(N)nc2c1ncn2[C@@H]1O[C@H](CO)[C@@H](O)[C@@H]1O [Nelarabine] + Cc1cc(Nc2cc(N3CCN(C)CC3)nc(Sc3ccc(NC(=O)C4CC4)cc3)n2)n[nH]1 [Tozasertib] (partner 0.1 µM)
Method in brief: as §1

EMC-BAC-2 gave a relative viability ([1]; first compound 0.03162 µM) of 0.542, a relative viability ([1]; first compound 0.1 µM) of 0.516 and a relative viability ([1]; first compound 0.3162 µM) of 0.487. For the same cell line, the relative viability ([2]; first compound 0.01 µM) was 0.333, the relative viability ([2]; first compound 0.03162 µM) was 0.339 and the relative viability ([2]; first compound 0.1 µM) was 0.324. It also gave a relative viability ([2]; first compound 0.3162 µM) of 0.261, a relative viability ([3]; first compound 0.03162 µM) of 0.399 and a relative viability ([3]; first compound 0.1 µM) of 0.357. For the same cell line, the relative viability ([3]; first compound 0.3162 µM) was 0.334, the relative viability ([4]; first compound 0.01 µM) was 0.539 and the relative viability ([4]; first compound 0.03162 µM) was 0.514. For the same cell line, the relative viability ([4]; first compound 0.1 µM) was 0.512, the relative viability ([4]; first compound 0.3162 µM) was 0.529 and the relative viability ([4]; first compound 1 µM) was 0.514. For the same cell line, the relative viability ([5]; first compound 0.01 µM) was 0.307, the relative viability ([5]; first compound 0.03162 µM) was 0.236 and the relative viability ([5]; first compound 0.1 µM) was 0.277. It also gave a relative viability ([5]; first compound 0.3162 µM) of 0.239 and a relative viability ([5]; first compound 1 µM) of 0.297.
